Tests used:
[1] = target: T1, wt human TYK2, catalytic site (Homo sapiens, UniProt P29597); test: HTRF KinEASE assay, TYK2; assay type: biochemical; conditions: 1 μM ATP; read-out: IC50, Activity Toward TYK2
T1 construct: wt human TYK2, catalytic site; purchased SignalChem
T1 sequence (P29597 897-1176 limits assumed): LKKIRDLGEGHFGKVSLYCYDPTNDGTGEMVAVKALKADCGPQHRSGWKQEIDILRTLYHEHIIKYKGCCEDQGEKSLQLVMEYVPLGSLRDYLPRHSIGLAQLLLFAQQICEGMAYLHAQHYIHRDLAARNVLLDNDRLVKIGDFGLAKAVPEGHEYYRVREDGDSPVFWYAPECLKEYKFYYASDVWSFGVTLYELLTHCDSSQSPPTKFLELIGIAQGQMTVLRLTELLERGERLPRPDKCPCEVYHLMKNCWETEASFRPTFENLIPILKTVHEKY
Procedure, shortened: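 HTRF KinEASE-TK readout with 1 μM biotinylated TK substrate in 1× kinase buffer, ≥30 min at room temperature, then antibody/streptavidin-XL665 detection for 60 min. TYK2 at 2 nM with 1 μM ATP; JAK2 at 1 nM with 100 μM ATP. Analysis uses emission ratios.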

[2] = target: T2, wt human LRRK2, catalytic site (Homo sapiens, UniProt Q5S007); test: TR-FRET LanthaScreen Eu Kinase Binding Assay, LRRK2 wt; conditions: one range stated for wt and G2019, read-out: IC50, Activity Toward LRRK2(Wt)
T2 construct: 5 nM wt human LRRK2, catalytic site; purchased ThermoFisher
T2 sequence (Q5S007 970-2527 limits assumed): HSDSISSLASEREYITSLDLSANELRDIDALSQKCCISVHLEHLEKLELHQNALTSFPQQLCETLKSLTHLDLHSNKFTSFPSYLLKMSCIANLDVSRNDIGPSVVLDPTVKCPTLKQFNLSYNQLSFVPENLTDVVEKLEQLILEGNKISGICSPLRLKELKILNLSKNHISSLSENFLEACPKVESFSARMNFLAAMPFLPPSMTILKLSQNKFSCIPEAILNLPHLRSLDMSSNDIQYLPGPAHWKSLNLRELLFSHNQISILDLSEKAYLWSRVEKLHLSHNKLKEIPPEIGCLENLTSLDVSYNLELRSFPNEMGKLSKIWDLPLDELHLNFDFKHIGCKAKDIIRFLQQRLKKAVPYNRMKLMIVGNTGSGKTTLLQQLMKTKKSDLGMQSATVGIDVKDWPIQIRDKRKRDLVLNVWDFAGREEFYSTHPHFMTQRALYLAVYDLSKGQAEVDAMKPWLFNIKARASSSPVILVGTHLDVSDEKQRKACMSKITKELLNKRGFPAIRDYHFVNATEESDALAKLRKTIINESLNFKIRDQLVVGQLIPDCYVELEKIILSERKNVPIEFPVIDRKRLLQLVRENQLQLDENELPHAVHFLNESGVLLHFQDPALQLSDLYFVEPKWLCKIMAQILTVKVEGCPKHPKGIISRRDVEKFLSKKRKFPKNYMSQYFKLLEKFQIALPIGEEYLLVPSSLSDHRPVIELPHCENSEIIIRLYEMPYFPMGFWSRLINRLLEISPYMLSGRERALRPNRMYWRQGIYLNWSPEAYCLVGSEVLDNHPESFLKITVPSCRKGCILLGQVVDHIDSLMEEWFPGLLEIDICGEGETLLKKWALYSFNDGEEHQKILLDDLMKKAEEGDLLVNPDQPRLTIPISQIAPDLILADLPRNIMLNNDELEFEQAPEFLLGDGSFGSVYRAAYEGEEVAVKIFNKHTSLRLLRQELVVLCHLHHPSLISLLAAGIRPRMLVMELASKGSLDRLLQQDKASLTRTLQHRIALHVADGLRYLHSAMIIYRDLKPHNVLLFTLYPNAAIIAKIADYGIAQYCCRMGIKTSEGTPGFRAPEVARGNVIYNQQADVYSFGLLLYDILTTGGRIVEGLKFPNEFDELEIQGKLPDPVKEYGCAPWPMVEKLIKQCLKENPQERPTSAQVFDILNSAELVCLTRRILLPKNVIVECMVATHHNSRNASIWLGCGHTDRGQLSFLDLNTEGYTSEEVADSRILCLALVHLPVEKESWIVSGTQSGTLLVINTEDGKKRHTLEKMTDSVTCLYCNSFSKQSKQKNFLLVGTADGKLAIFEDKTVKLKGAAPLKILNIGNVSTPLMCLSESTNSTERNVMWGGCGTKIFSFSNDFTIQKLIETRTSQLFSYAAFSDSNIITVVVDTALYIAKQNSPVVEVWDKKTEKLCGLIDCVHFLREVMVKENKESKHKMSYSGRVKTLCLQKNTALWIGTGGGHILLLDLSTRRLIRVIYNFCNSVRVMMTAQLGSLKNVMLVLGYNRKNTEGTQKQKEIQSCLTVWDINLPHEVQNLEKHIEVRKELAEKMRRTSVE
Procedure, shortened: (§1)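 Competitive tracer-displacement TR-FRET, 1 h at room temperature, read as emission ratio. LRRK2 (wt or G2019S catalytic domain) at 5 nM with 2 nM Eu-anti-GST and 10 nM Tracer 236; full-length NUAK1 at 8 nM with 2 nM Eu-anti-His and 5 nM Tracer 236, all final in Kinase Buffer A.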

[3] = target: T3, G2019S human LRRK2, catalytic site (Homo sapiens, UniProt Q5S007, G2019S); test: TR-FRET LanthaScreen Eu Kinase Binding Assay, LRRK2 G2019S; conditions: LRRK2(G2019); one range stated for wt and G2019; read-out: IC50, Activity Toward LRRK2(G2019)
T3 construct: G2019S human LRRK2, catalytic site; purchased ThermoFisher
T3 sequence (Q5S007 970-2527 G2019S limits assumed): as the sequence (Q5S007 970-2527 limits assumed) above, with G1050S counted along it
Procedure, shortened: as §1

[4] = target: T4, wt human NUAK1, full length (Homo sapiens, UniProt O60285); test: TR-FRET LanthaScreen Eu Kinase Binding Assay, NUAK1; conditions: read-out: IC50, Activity Toward NUAK1
T4 construct: 8 nM wt human NUAK1, full length (ThermoFisher/USA); purchased ThermoFisher
T4 sequence (O60285 1-661): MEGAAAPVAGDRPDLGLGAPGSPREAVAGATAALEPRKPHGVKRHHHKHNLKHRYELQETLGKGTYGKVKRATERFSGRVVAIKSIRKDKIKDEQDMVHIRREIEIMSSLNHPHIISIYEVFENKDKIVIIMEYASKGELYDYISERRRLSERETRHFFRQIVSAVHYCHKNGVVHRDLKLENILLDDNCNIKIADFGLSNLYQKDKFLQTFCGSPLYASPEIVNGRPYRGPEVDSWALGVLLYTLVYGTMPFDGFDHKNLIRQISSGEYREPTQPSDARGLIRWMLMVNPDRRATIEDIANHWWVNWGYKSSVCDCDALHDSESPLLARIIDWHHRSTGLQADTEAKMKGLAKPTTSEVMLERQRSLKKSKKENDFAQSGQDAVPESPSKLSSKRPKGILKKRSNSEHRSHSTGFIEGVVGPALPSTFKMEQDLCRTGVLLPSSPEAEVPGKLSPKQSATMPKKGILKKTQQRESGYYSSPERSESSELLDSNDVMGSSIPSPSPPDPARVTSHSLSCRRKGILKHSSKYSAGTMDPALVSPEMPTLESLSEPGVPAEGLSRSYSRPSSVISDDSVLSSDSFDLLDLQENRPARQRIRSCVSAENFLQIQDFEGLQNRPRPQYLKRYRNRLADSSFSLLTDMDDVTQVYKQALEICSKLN
Protocol: The basic protocol for TR-FRET LanthaScreen Eu Kinase Binding Assay inhibitor studies were performed as follows. LanthaScreen Kinase Binding Assays (ThermoFisher/USA) to evaluate inhibitors were performed by addition of 5 μL of test compound in corresponding DMSO dilutions/5 μl of kinase/antibody mixture, 5 μL of tracer into 384 well small volume plates. After incubation for 1 hour at room temperature, plates were read. Data analysis of emission ratios was according LanthaScreen Eu Kinase Binding Assay protocol.
Kinase and assay components were adjusted to final concentrations according to kit protocol. For LRRK2: 5 nM wt human LRRK2, catalytic site, or G2019S human LRRK2, catalytic site (ThermoFisher/USA), 2 nM Eu-Anti-GST Antibody, 10 nM Kinase Tracer 236 in 1× Kinase Buffer A. For NUAK1: 8 nM wt human NUAK1, full length (ThermoFisher/USA), 2 nM Eu-Anti-His Antibody, 5 nM Kinase Tracer 236 in 1× Kinase Buffer A.

[5] = target: T5, wt human JAK1, catalytic site (Homo sapiens, UniProt P23458); test: HTRF KinEASE assay, JAK1; assay type: biochemical; conditions: 2.5 μM ATP; read-out: IC50, Activity Toward JAK1
T5 construct: wt human JAK1, catalytic site; purchased ThermoFisher
T5 sequence (P23458 875-1153 limits assumed): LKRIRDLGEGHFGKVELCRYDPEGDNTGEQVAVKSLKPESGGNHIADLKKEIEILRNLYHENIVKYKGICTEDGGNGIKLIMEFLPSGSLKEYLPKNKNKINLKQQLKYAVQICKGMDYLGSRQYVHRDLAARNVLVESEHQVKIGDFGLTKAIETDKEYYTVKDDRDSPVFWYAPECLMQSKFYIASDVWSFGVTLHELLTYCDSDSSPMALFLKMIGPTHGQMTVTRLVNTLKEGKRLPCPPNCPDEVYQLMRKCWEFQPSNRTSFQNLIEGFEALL
Procedure, shortened: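 Two-step HTRF KinEASE assay: compound, kinase/biotinylated TK substrate and ATP were incubated at least 30 min at room temperature. Antibody plus streptavidin-XL665 was then added and plates were read after 60 min. Inhibition was derived from emission ratios according to the kit protocol.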

Structure (SMILES) | IC50 [1] | IC50 [2] | IC50 [3] | IC50 [4] | IC50 [5]
NC(=O)c1nn(-c2c(F)cccc2F)cc1Nc1ccc(C(=O)NCC(F)(F)F)cc1 [compound 14, 1-(2,6-difluorophenyl)-4-((4-((2,2,2-trifluoroethyl)carbamoyl)phenyl)amino)-1H-pyrazole-3-carboxamide] | 10 to 100 nM | 100 to 1000 nM | 100 to 1000 nM | 10 to 100 nM | 100 to 1000 nM
CC(C)(C)NC(=O)c1ccc(Nc2cn(-c3c(F)cccc3F)nc2C(N)=O)cc1 [compound 15, 4-((4-(tert-butylcarbamoyl)phenyl)amino)-1-(2,6-difluorophenyl)-1H-pyrazole-3-carboxamide] | 10 to 100 nM | 100 to 1000 nM | 100 to 1000 nM | 100 to 1000 nM | 100 to 1000 nM
CN(C)[C@H]1CCN(C(=O)c2ccc(Nc3cn(-c4c(Cl)cccc4Cl)nc3C(N)=O)cc2)C1 [compound 314, (S)-1-(2,6-dichlorophenyl)-4-((4-(3-(dimethylamino)pyrrolidine-1-carbonyl)phenyl)amino)-1H-pyrazole-3-carboxamide] | < 10 nM | – | – | 100 to 1000 nM | 10 to 100 nM
NC(=O)c1nn(-c2c(Cl)cccc2Cl)cc1Nc1ccc(C(=O)N2CC[C@H](N)C2)cc1 [compound 319, (S)-4-((4-(3-aminopyrrolidine-1-carbonyl)phenyl)amino)-1-(2,6-dichlorophenyl)-1H-pyrazole-3-carboxamide] | 10 to 100 nM | – | – | 100 to 1000 nM | 10 to 100 nM
NC(=O)c1nn(-c2c(Cl)cccc2Cl)cc1Nc1ccc(C(=O)N2CC[C@H](N3CCCC3)C2)cc1 [compound 332, (S)-4-((4-([1,3′-bipyrrolidine]-1′-carbonyl)phenyl)amino)-1-(2,6-dichlorophenyl)-1H-pyrazole-3-carboxamide] | < 10 nM | – | – | 100 to 1000 nM | 100 to 1000 nM
NC(=O)c1nn(-c2c(Cl)cccc2Cl)cc1Nc1ccc(-c2nc(C(F)(F)F)cn2CCO)cc1 [compound 338, 1-(2,6-dichlorophenyl)-4-((4-(1-(2-hydroxyethyl)-4-(trifluoromethyl)-1H-imidazol-2-yl)phenyl)amino)-1H-pyrazole-3-carboxamide] | < 10 nM | – | – | 100 to 1000 nM | 100 to 1000 nM
NC(=O)c1nn(-c2c(Cl)cccc2Cl)cc1Nc1cn[nH]c1 [compound 407, 4-((1H-pyrazol-4-yl)amino)-1-(2,6-dichlorophenyl)-1H-pyrazole-3-carboxamide] | 100 to 1000 nM | – | – | 100 to 1000 nM | 100 to 1000 nM
NC(=O)c1nn(-c2c(Cl)cccc2Cl)cc1Nc1ccc(OC2CCNCC2)cc1 [compound 424, 1-(2,6-dichlorophenyl)-4-((4-(piperidin-4-yloxy)phenyl)amino)-1H-pyrazole-3-carboxamide] | 10 to 100 nM | – | – | 100 to 1000 nM | 100 to 1000 nM

Further lines, results first:

IC50 [1] | IC50 [2] | IC50 [3] | IC50 [4] | IC50 [5] | Structure (SMILES)
100 to 1000 nM | 100 to 1000 nM | 100 to 1000 nM | 100 to 1000 nM | – | Cc1cc(Nc2cn(-c3c(F)cccc3F)nc2C(N)=O)ncn1 [compound 4, 1-(2,6-difluorophenyl)-4-((6-methylpyrimidin-4-yl)amino)-1H-pyrazole-3-carboxamide]
100 to 1000 nM | 100 to 1000 nM | 100 to 1000 nM | 100 to 1000 nM | – | NC(=O)c1nn(-c2c(F)cccc2F)cc1Nc1ccccn1 [compound 7, 1-(2,6-difluorophenyl)-4-(pyridin-2-ylamino)-1H-pyrazole-3-carboxamide]
100 to 1000 nM | 100 to 1000 nM | 100 to 1000 nM | 10 to 100 nM | 100 to 1000 nM | Cc1cc(Nc2cn(-c3c(F)cccc3F)nc2C(N)=O)nc(N)n1 [compound 8, 4-((2-amino-6-methylpyrimidin-4-yl)amino)-1-(2,6-difluorophenyl)-1H-pyrazole-3-carboxamide]
10 to 100 nM | – | – | 100 to 1000 nM | 10 to 100 nM | COCCc1ncnn1-c1ccc(Nc2cn(-c3c(Cl)cccc3Cl)nc2C(N)=O)cc1 [compound 327, 1-(2,6-dichlorophenyl)-4-((4-(5-(2-methoxyethyl)-1H-1,2,4-triazol-1-yl)phenyl)amino)-1H-pyrazole-3-carboxamide]

— patent publication US20230373985A1 (Origenis Gmbh, priority 2020, published 2023)
